Experimental data as given in paper PMC12764492, “Therapeutic 6-thio-deoxyguanosine inhibits telomere elongation in cancer cells by inducing a non-productive stalled telomerase complex” (Nature Communications, 2025).

Target: T1, DNA polymerase δ (Pol δ) holoenzyme (Homo sapiens, UniProt P28340)
T1 construct: gene POLD1; recombinant human Pol δ heterotetramer; with other Pol δ subunits (heterotetramer); PCNA
Assay: primer extension by reconstituted Pol δ holoenzyme with 6-thio-dGTP ([…]) replacing dGTP; inserted, not significantly inhibitory
Type: biochemical

T1 sequence (P28340 whole entry): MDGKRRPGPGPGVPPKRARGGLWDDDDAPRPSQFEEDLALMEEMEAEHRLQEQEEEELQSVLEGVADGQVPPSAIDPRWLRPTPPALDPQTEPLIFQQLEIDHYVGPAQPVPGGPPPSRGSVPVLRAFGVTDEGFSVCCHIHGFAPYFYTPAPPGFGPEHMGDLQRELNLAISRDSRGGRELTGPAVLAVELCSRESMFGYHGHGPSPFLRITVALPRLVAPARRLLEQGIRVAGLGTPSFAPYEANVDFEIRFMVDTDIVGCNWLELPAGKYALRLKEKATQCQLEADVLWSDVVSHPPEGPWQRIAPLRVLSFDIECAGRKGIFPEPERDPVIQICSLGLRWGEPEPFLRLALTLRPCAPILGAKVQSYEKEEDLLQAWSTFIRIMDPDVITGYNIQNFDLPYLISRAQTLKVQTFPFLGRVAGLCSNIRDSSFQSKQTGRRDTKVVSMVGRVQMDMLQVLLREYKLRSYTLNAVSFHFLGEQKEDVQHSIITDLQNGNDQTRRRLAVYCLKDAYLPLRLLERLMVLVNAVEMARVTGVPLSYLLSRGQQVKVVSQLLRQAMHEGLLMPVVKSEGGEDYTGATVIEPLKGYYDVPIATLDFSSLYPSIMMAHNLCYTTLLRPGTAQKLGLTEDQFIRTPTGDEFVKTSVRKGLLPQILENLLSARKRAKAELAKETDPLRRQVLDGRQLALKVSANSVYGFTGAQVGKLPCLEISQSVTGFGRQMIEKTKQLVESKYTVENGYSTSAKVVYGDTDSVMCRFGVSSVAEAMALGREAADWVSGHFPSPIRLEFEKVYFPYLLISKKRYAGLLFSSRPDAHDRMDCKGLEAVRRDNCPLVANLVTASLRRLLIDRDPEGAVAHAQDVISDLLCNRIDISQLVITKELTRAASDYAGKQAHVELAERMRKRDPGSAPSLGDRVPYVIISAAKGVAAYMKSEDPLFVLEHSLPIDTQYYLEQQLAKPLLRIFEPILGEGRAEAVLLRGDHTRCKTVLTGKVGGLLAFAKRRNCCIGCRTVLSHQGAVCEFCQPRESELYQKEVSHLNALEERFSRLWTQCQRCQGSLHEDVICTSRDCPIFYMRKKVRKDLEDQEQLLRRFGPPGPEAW
T1 sequence (P49005 whole entry partner): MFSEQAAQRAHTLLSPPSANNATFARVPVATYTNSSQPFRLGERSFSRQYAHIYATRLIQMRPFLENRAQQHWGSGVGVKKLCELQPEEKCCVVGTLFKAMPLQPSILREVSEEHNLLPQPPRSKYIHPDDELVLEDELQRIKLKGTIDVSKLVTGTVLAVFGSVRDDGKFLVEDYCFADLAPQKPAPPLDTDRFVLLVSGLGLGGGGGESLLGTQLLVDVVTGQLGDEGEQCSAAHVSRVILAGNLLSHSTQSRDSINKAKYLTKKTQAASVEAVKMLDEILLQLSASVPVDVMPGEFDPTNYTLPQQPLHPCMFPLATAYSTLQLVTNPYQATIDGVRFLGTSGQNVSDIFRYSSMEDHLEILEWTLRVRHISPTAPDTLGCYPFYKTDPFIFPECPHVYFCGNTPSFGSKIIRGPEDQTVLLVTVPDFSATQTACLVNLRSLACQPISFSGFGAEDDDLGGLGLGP
T1 sequence (Q15054 2-466 partner): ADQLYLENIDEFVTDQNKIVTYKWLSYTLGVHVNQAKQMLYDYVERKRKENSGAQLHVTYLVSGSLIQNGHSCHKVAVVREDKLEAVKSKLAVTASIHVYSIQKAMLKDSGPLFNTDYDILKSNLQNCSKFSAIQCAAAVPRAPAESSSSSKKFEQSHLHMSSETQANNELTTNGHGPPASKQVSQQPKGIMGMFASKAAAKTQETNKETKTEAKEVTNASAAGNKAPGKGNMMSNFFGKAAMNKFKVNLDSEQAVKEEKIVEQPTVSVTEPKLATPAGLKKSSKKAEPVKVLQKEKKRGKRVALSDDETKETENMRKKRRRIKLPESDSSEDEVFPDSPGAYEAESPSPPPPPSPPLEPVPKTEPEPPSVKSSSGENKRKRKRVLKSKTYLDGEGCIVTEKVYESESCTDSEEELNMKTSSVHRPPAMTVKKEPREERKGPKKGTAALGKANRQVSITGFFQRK
T1 sequence (Q9HCU8 whole entry partner): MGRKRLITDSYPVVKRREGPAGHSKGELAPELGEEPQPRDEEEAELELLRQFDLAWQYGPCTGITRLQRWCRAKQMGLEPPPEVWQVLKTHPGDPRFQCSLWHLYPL
T1 sequence (P12004 whole entry partner): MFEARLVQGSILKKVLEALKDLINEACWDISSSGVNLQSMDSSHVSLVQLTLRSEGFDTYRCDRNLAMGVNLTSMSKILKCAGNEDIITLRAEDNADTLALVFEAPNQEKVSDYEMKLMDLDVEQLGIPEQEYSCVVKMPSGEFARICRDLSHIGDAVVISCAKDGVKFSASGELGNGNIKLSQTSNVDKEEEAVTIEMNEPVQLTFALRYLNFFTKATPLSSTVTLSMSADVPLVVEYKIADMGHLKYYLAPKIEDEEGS

With `Nc1nc2c(ncn2[C@H]2C[C@H](O)[C@@H](COP(=O)(O)OP(=O)(O)OP(=O)(O)O)O2)c(=S)[nH]1` [6-thio-dGTP] the “primer extension by reconstituted Pol δ holoenzyme with 6-thio-dGTP (9.7 μM) rep” value was “The substitution of 6-thio-dGTP for dGTP did not significantly alter primer extension”.
